Test results reported in patent US12522595B2, “Bicyclic ether O-glycoprotein-2-acetamido-2-deoxy-3-D-glucopyranosidase inhibitors” (BIOGEN MA INC., priority 2019, dated 2026).

What follows are compounds tested against T1, Recombinant full length human OGA enzyme (Homo sapiens, UniProt O60502) (assay: OGA enzyme inhibition biochemical assay). Conditions: 1 nM OGA, 100 μM 4-MUGlcNAc (Km), pH 6.4, 90 minutes at room temperature, 10-point dose-response from 20 μM.
T1 construct: Recombinant full length human OGA enzyme was purchased from Origene; purchased Origene
T1 sequence (O60502 1-916): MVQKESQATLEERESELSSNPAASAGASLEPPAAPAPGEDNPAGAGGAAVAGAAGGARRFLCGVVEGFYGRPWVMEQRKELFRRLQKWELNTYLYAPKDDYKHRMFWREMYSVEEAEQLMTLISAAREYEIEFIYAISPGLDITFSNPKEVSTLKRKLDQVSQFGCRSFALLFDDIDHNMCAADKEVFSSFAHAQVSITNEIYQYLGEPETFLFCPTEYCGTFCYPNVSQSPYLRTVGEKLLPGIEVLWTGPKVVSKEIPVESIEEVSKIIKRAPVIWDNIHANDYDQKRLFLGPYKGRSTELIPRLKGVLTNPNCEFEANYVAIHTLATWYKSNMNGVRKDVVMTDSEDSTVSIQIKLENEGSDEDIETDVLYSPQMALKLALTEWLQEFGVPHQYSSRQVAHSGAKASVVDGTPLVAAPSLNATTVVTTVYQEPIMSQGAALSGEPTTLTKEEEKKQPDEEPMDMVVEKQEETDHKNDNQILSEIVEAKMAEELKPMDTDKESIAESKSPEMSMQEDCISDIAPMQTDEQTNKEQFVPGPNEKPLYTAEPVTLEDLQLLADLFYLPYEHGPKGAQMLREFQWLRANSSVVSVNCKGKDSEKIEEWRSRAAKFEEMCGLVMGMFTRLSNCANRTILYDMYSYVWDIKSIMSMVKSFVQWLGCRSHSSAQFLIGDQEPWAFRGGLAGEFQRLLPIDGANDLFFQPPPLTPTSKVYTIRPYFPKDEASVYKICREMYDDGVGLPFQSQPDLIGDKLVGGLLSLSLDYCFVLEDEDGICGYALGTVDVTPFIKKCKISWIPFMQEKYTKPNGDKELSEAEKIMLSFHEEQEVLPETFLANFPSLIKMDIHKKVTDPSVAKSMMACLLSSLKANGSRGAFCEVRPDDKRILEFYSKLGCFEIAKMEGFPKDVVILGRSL
Procedure: N-(5-(((2S,4R)-4-([1,2,4]triazolo[4,3-a]pyrazin-3-yloxy)-2-methylpyrrolidin-1-yl)methyl)-4-fluorothiazol-2-yl)acetamide: The title compound was prepared in an analogous manner as Example 172 from 3-bromo-[1,2,4]triazolo[4,3-a]pyrazine. LCMS (ESI): [M+H] 392. ^1H NMR (600 MHz, CHLOROFORM-d) δ 10.75 (br s, 1H), 9.04 (s, 1H), 9.03 (s, 1H), 7.24 (s, 1H), 4.99-5.06 (m, 1H), 4.01 (d, J=14.49 Hz, 1H), 3.64 (d, J=14.67 Hz, 1H), 3.40 (d, J=11.55 Hz, 1H), 2.75 (dd, J=5.78, 11.46 Hz, 1H), 2.61-2.72 (m, 2H), 2.32 (s, 4H), 1.84-1.92 (m, 1H), 1.30 (d, J=5.87 Hz, 4H). ^19F NMR (565 MHz, CHLOROFORM-d) 6-115.92 (br s, 1F). OGA Enzyme Inhibition Biochemical Assay
Recombinant full length human OGA enzyme was purchased from Origene. 4-MUGlCNAc substrate was purchased from Sigma. All other reagents were purchased from Sigma or Fisher. Assay buffer consists of the McIlvaine buffer system, pH 6.4 (0.2M Na2HPO4 mixed with 0.1M citric acid) and 0.01% BSA. Reactions consist of 1 nM OGA, 100 μM 4-MUGlcNAc (Km), and compound in a final volume of 10 μl. Reactions were incubated for 90 minutes at room temperature and quenched with 40 μl of 3M glycine, pH 10 and read on a Perkin Elmer Envision plate reader (Ex: 355 nm/Em: 460 nm). Compounds were tested with a 10-point dose-response starting from 20 μM with a 4-fold dilution. Data, as presented in Table 1 below, was fit using GraphPad Prism using a 4-parameter fit with variable slope.

SMILES	IC50
CC(=O)Nc1ncc(CN2C[C@H](Oc3nc4c(cc3C#N)CCCC4)C[C@@H]2C)s1 [Example 32, N-(5-(((2S,4R)-4-((3-cyano-5,6,7,8-tetrahydroquinolin-2-yl)oxy)-2-methylpyrrolidin-1-yl)methyl)thiazol-2-yl)acetamide]	11 nM
CC(=O)Nc1ncc(CN2C[C@H](Oc3ccnc4c3CCCC4)C[C@@H]2C)s1 [Example 33, N-(5-(((2S,4R)-2-methyl-4-((5,6,7,8-tetrahydroquinolin-4-yl)oxy)pyrrolidin-1-yl)methyl)thiazol-2-yl)acetamide]	16 nM
CC(=O)Nc1ncc(CN2C[C@H](Oc3ccnc4nc(C(F)(F)F)nn34)C[C@@H]2C)s1 [Example 34, N-(5-(((2S,4R)-2-methyl-4-((2-(trifluoromethyl)-[1,2,4]triazolo[1,5-a]pyrimidin-7-yl)oxy)pyrrolidin-1-yl)methyl)thiazol-2-yl)acetamide]	22 nM
CC(=O)Nc1ncc(CN2C[C@H](Oc3ncnc4cc(F)c(F)cc34)C[C@@H]2C)s1 [Example 35, N-(5-(((2S,4R)-4-((6,7-difluoroquinazolin-4-yl)oxy)-2-methylpyrrolidin-1-yl)methyl)thiazol-2-yl)acetamide]	110 nM
CC(=O)Nc1ncc(CN2C[C@H](Oc3ncnc4sc(C(F)F)nc34)C[C@@H]2C)s1 [Example 36]	780 nM
CC(=O)Nc1ncc(CN2C[C@H](Oc3nc4ccccc4cc3C#N)C[C@@H]2C)s1 [Example 37, N-(5-(((2S,4R)-4-((3-cyanoquinolin-2-yl)oxy)-2-methylpyrrolidin-1-yl)methyl)thiazol-2-yl)acetamide]	16 nM

These reach a lower IC50. Values come first.

IC50	SMILES
4.5 nM	CC(=O)Nc1ncc(CN2C[C@H](Oc3nccc4ccccc34)C[C@@H]2C)s1 [Example 26, N-(5-(((2S,4R)-4-(isoquinolin-1-yloxy)-2-methylpyrrolidin-1-yl)methyl)thiazol-2-yl)acetamide]
4 nM	CC(=O)Nc1ncc(CN2C[C@H](Oc3nccc4cc(F)ccc34)C[C@@H]2C)s1 [Example 27, N-(5-(((2S,4R)-4-((6-fluoroisoquinolin-1-yl)oxy)-2-methylpyrrolidin-1-yl)methyl)thiazol-2-yl)acetamide]
5.4 nM	CC(=O)Nc1ncc(CN2C[C@H](Oc3nccn4nc(C(F)(F)F)cc34)C[C@@H]2C)s1 [Example 28, N-(5-(((2S,4R)-2-methyl-4-((2-(trifluoromethyl)pyrazolo[1,5-a]pyrazin-4-yl)oxy)pyrrolidin-1-yl)methyl)thiazol-2-yl)acetamide]
5.5 nM	CC(=O)Nc1ncc(CN2C[C@H](Oc3nc4ccccc4cc3C)C[C@@H]2C)s1 [Example 29, N-(5-(((2S,4R)-2-methyl-4-((3-methylquinolin-2-yl)oxy)pyrrolidin-1-yl)methyl)thiazol-2-yl)acetamide]
7.9 nM	CC(=O)Nc1ncc(CN2C[C@H](Oc3nccc4ccc(C)cc34)C[C@@H]2C)s1 [Example 30, N-(5-(((2S,4R)-2-methyl-4-((7-methylisoquinolin-1-yl)oxy)pyrrolidin-1-yl)methyl)thiazol-2-yl)acetamide]
9.7 nM	CC(=O)Nc1ncc(CN2C[C@H](Oc3cc4ccccc4nc3C#N)C[C@@H]2C)s1 [Example 31, N-(5-(((2S,4R)-4-((2-cyanoquinolin-3-yl)oxy)-2-methylpyrrolidin-1-yl)methyl)thiazol-2-yl)acetamide]
< 1 nM	CC(=O)Nc1ncc(CN2C[C@H](Oc3c(Cl)ccn4ccnc34)C[C@@H]2C)s1 [Example 38, N-(5-(((2S,4R)-4-((7-chloroimidazo[1,2-a]pyridin-8-yl)oxy)-2-methylpyrrolidin-1-yl)methyl)thiazol-2-yl)acetamide]
< 1 nM	CC(=O)Nc1ncc(CN2C[C@H](Oc3cc4nccn4cn3)C[C@@H]2C)s1 [Example 39, N-(5-(((2S,4R)-4-(imidazo[1,2-c]pyrimidin-7-yloxy)-2-methylpyrrolidin-1-yl)methyl)thiazol-2-yl)acetamide]
